Data reported in patent publication US9403874B2, “Peptides and use thereof” (IL YANG PHARM. CO.,LTD., priority 2012, dated 2016).

Key:
Format in all cases: cell-based
Details in all cases: 100 ng/me of peptide; EBV-infected B cells stimulated with anti-CD150; ELISA of culture supernatant
IL-5 = assay: Reduction of IL-5 secretion in activated B cells (ELISA)
Procedure: (§1) In order to determine the activity of the novel peptides synthesized in Example 1 for reducing the secretion of inflammatory cytokines, the activated pathogenic B cells were treated with each of the 18 types of synthesized novel peptides and the reduction in secretion of inflammatory cytokines from the B cells was monitored.
(§2) Specifically, in order to determine whether the novel peptides could weaken the pathogenic B cells which are involved in the development of disease symptoms, the in vitro B cells model which is similar to the joint infiltrative B cells of rheumatoid arthritis was used. The activated pathogenic B cell was generated by stimulating Ebstein Barr virus (EBV)-infected B cells with anti-CD150 antibodies, and the cells were treated with […] of each of the 18 types of novel peptide.
(§3) In order to confirm the effect of 18 types of novel peptides in reducing inflammatory cytokines, the secretion amount of various cytokines (IL-1A, IL-1B, IL-2, IL-4, IL-5, IL-6, IL-8, IL-10, IL-12A, IL-13, IL-17A, GM-CSF, IL-34) secreted from the activated B cells was measured. The supernatants of B cell culture were analyzed enzyme-linked immunosorbent assay (ELISA), and the difference in absorbance (450 nm-570 nm) of the color developing reagent was measured as test results. Based on the measured difference in absorbance (450 nm-570 nm) of the color developing reagent, the absorbance of cytokines secreted when treated with the 18 types of novel […] was calculated in percentage, while setting the absorbance corresponding to the cytokines secreted from the activated B cells stimulated by anti-CD150 as 100%.

IL-1A = assay: Reduction of IL-1A secretion in activated B cells (ELISA)
Procedure: as §1, §2, §3

IL-13 = assay: Reduction of IL-13 secretion in activated B cells (ELISA)
Procedure: as §1, §2, §3

IL-34 = assay: Reduction of IL-34 secretion in activated B cells (ELISA)
Procedure: as §1, §2, §3

IL-17A = assay: Reduction of IL-17A secretion in activated B cells (ELISA)
Procedure: as §1, §2, §3

IL-8 = assay: Reduction of IL-8 secretion in activated B cells (ELISA)
Procedure: as §1, §2, §3

GM-CSF = assay: Reduction of GM-CSF secretion in activated B cells (ELISA)
Procedure: as §1, §2, §3

IL-1B = assay: Reduction of IL-1B secretion in activated B cells (ELISA)
Procedure: as §1, §2, §3

IL-6 = assay: Reduction of IL-6 secretion in activated B cells (ELISA)
Procedure: as §1, §2, §3

IL-2 = assay: Reduction of IL-2 secretion in activated B cells (ELISA)
Procedure: as §1, §2, §3

IL-4 = assay: Reduction of IL-4 secretion in activated B cells (ELISA)
Procedure: as §1, §2, §3

IL-10 = assay: Reduction of IL-10 secretion in activated B cells (ELISA)
Procedure: as §1, §2, §3

IL-12A = assay: Reduction of IL-12A secretion in activated B cells (ELISA)
Procedure: as §1, §2, §3

Substance | Inhibition rate of each cytokine compared to CD150-stimulated EBV-t B cells (%) IL-5 (IL-5) [%] | Inhibition rate of each cytokine compared to CD150-stimulated EBV-t B cells (%) IL-1A (IL-1A) [%] | Inhibition rate of each cytokine compared to CD150-stimulated EBV-t B cells (%) IL-13 (IL-13) [%] | Inhibition rate of each cytokine compared to CD150-stimulated EBV-t B cells (%) IL-34 (IL-34) [%] | Inhibition rate of each cytokine compared to CD150-stimulated EBV-t B cells (%) IL-17A (IL-17A) [%] | Inhibition rate of each cytokine compared to CD150-stimulated EBV-t B cells (%) IL-8 (IL-8) [%] | Inhibition rate of each cytokine compared to CD150-stimulated EBV-t B cells (%) GM-CSF (GM-CSF) [%] | Inhibition rate of each cytokine compared to CD150-stimulated EBV-t B cells (%) IL-1B (IL-1B) [%] | Inhibition rate of each cytokine compared to CD150-stimulated EBV-t B cells (%) IL-6 (IL-6) [%] | Inhibition rate of each cytokine compared to CD150-stimulated EBV-t B cells (%) IL-2 (IL-2) [%] | Inhibition rate of each cytokine compared to CD150-stimulated EBV-t B cells (%) IL-4 (IL-4) [%] | Inhibition rate of each cytokine compared to CD150-stimulated EBV-t B cells (%) IL-10 (IL-10) [%] | Inhibition rate of each cytokine compared to CD150-stimulated EBV-t B cells (%) IL-12A (IL-12A) [%]
MSLPSPRDGRTDG (SIS-1#4 peptide) | 20.4 | 18.1 | 23.1 | 16.8 | 43.0 | 32.0 | 18.5 | 16.5 | 32.3 | 18.8 | 20.8 | 18.0 | 33.9
RDGR (SIS-1#15 peptide) | 6.4 | 11.5 | 7.2 | 6.0 | 10.1 | 15.0 | 1.5 | 5.7 | 4.8 | 12.7 | 6.3 | 7.2 | 10.8
MSLPSP (SIS-1#1 peptide) | 18.5 | 7.8 | 15.0 | 18.8 | 24.8 | 17.5 | 18.0 | 9.3 | 19.2 | 13.5 | 19.8 | 7.2 | 19.8
PSPRDGRTDG (SIS-1#6 peptide) | 15.6 | 12.0 | 29.4 | 31.0 | 42.2 | 28.0 | 21.2 | 15.2 | 33.9 | 23.1 | 20.5 | 4.5 | 30.8
GRTDG (SIS-1#10 peptide) | 24.2 | 7.8 | 25.7 | 27.0 | 25.0 | 17.9 | 13.0 | 4.2 | 25.0 | 11.4 | 19.5 | 7.5 | 29.8
PSPRDG (SIS-1#5 peptide) | 9.8 | 8.3 | 15.2 | 13.2 | 12.8 | 10.5 | 7.5 | 14.2 | 18.7 | 6.8 | 13.2 | 7.2 | 8.9
RTDCTR (SIS-1#3 peptide) | 17.4 | 14.0 | 10.2 | 9.8 | 11.0 | 19.2 | 7.2 | 20.0 | 18.2 | 12.3 | 13.2 | 25.2 | 19.4
RTDG (SIS-1#7 peptide) | 3.5 | 6.3 | 3.6 | 2.9 | 9.5 | 3.2 | 4.5 | 5.3 | 11.8 | 7.4 | 10.2 | 5.3 | 11.4
RDG (SIS-1#14 peptide) | 11.0 | 7.2 | 4.4 | 4.2 | 7.7 | 5.7 | 0.3 | 5.3 | 1.5 | 10.2 | 3.0 | 10.4 | 2.9
RDGRTDG (SIS-1#2 peptide) | 25.4 | 23.8 | 23.8 | 25.4 | 39.8 | 25.2 | 19.0 | 18.2 | 29.8 | 15.1 | 23.8 | 19.8 | 30.1
